pIC50: −log10 of the molar value.
Tests used:
HCT-15 [1] = experiment: Cytotoxicity against human HCT15 cells at 10 uM after 48 hrs by SRB assay; type: functional; settings: HCT-15, 48 h, read-out: GI
SF-295 [2] = experiment: Cytotoxicity against human SF295 cells at 10 uM after 48 hrs by SRB assay; type: functional; settings: SF-295, 48 h, read-out: GI
A549 [3] = experiment: Cytotoxicity against human A549 cells at 10 uM after 48 hrs by SRB assay; type: functional; settings: A549, 48 h, read-out: GI
MCF7 [4] = experiment: Cytotoxicity against human MCF7 cells at 10 uM after 48 hrs by SRB assay; type: functional; settings: MCF7, 48 h, read-out: GI
HEp-2 [5] = experiment: Cytotoxicity against human Hep2 cells at 10 uM after 48 hrs by SRB assay; type: functional; settings: HEp-2, 48 h, read-out: GI
PC-3 [6] = experiment: Cytotoxicity against human PC3 cells at 10 uM after 48 hrs by SRB assay; type: functional; settings: PC-3, 48 h, read-out: GI
DU-145 [7] = experiment: Cytotoxicity against human DU145 cells at 10 uM after 48 hrs by SRB assay; type: functional; settings: DU-145, 48 h, read-out: GI
HL-60 [8] = experiment: Cytotoxicity against human HL60 cells at 10 uM after 48 hrs by SRB assay; type: functional; settings: HL-60, 48 h, read-out: GI
THP-1 [9] = experiment: Cytotoxicity against human THP1 cells at 10 uM after 48 hrs by SRB assay; type: functional; settings: THP-1, 48 h, read-out: GI
HCT-15 [10] = experiment: Cytotoxicity against human HCT15 cells at 30 uM after 48 hrs by SRB assay; type: functional; settings: HCT-15, 48 h, read-out: GI
SF-295 [11] = experiment: Cytotoxicity against human SF295 cells at 30 uM after 48 hrs by SRB assay; type: functional; settings: SF-295, 48 h, read-out: GI
A549 [12] = experiment: Cytotoxicity against human A549 cells at 30 uM after 48 hrs by SRB assay; type: functional; settings: A549, 48 h, read-out: GI
MCF7 [13] = experiment: Cytotoxicity against human MCF7 cells at 30 uM after 48 hrs by SRB assay; type: functional; settings: MCF7, 48 h, read-out: GI
HEp-2 [14] = experiment: Cytotoxicity against human Hep2 cells at 30 uM after 48 hrs by SRB assay; type: functional; settings: HEp-2, 48 h, read-out: GI
PC-3 [15] = experiment: Cytotoxicity against human PC3 cells at 30 uM after 48 hrs by SRB assay; type: functional; settings: PC-3, 48 h, read-out: GI
DU-145 [16] = experiment: Cytotoxicity against human DU145 cells at 30 uM after 48 hrs by SRB assay; type: functional; settings: DU-145, 48 h, read-out: GI
HL-60 [17] = experiment: Cytotoxicity against human HL60 cells at 30 uM after 48 hrs by SRB assay; type: functional; settings: HL-60, 48 h, read-out: GI
THP-1 [18] = experiment: Cytotoxicity against human THP1 cells at 30 uM after 48 hrs by SRB assay; type: functional; settings: THP-1, 48 h, read-out: GI
HCT-15 [19] = experiment: Cytotoxicity against human HCT15 cells at 50 uM after 48 hrs by SRB assay; type: functional; settings: HCT-15, 48 h, read-out: GI
SF-295 [20] = experiment: Cytotoxicity against human SF295 cells at 50 uM after 48 hrs by SRB assay; type: functional; settings: SF-295, 48 h, read-out: GI
A549 [21] = experiment: Cytotoxicity against human A549 cells at 50 uM after 48 hrs by SRB assay; type: functional; settings: A549, 48 h, read-out: GI
MCF7 [22] = experiment: Cytotoxicity against human MCF7 cells at 50 uM after 48 hrs by SRB assay; type: functional; settings: MCF7, 48 h, read-out: GI
HEp-2 [23] = experiment: Cytotoxicity against human Hep2 cells at 50 uM after 48 hrs by SRB assay; type: functional; settings: HEp-2, 48 h, read-out: GI
PC-3 [24] = experiment: Cytotoxicity against human PC3 cells at 50 uM after 48 hrs by SRB assay; type: functional; settings: PC-3, 48 h, read-out: GI
HL-60 [25] = experiment: Cytotoxicity against human HL60 cells at 50 uM after 48 hrs by SRB assay; type: functional; settings: HL-60, 48 h, read-out: GI
DU-145 [26] = experiment: Cytotoxicity against human DU145 cells at 50 uM after 48 hrs by SRB assay; type: functional; settings: DU-145, 48 h, read-out: GI
THP-1 [27] = experiment: Cytotoxicity against human THP1 cells at 50 uM after 48 hrs by SRB assay; type: functional; settings: THP-1, 48 h, read-out: GI
HCT-15 [28] = experiment: Cytotoxicity against human HCT15 cells after 48 hrs by SRB assay; type: functional, cell-based; settings: HCT-15, 48 h
A549 [29] = experiment: Cytotoxicity against human A549 cells after 48 hrs by SRB assay; type: functional, cell-based; settings: A549, 48 h
SF-295 [30] = experiment: Cytotoxicity against human SF295 cells after 48 hrs by SRB assay; type: functional, cell-based; settings: SF-295, 48 h
MCF7 [31] = experiment: Cytotoxicity against human MCF7 cells after 48 hrs by SRB assay; type: functional, cell-based; settings: MCF7, 48 h
HEp-2 [32] = experiment: Cytotoxicity against human Hep2 cells after 48 hrs by SRB assay; type: functional, cell-based; settings: HEp-2, 48 h
PC-3 [33] = experiment: Cytotoxicity against human PC3 cells after 48 hrs by SRB assay; type: functional, cell-based; settings: PC-3, 48 h
DU-145 [34] = experiment: Cytotoxicity against human DU145 cells after 48 hrs by SRB assay; type: functional, cell-based; settings: DU-145, 48 h
HL-60 [35] = experiment: Cytotoxicity against human HL60 cells after 48 hrs by SRB assay; type: functional, cell-based; settings: HL-60, 48 h
THP-1 [36] = experiment: Cytotoxicity against human THP1 cells after 48 hrs by SRB assay; type: functional, cell-based; settings: THP-1, 48 h

| Structure (SMILES) | inhibition of growth at 10 µM (HCT-15 [1]) | inhibition of growth at 10 µM (SF-295 [2]) | inhibition of growth at 10 µM (A549 [3]) | inhibition of growth at 10 µM (MCF7 [4]) | inhibition of growth at 10 µM (HEp-2 [5]) | inhibition of growth at 10 µM (PC-3 [6]) | inhibition of growth at 10 µM (DU-145 [7]) | inhibition of growth at 10 µM (HL-60 [8]) | inhibition of growth at 10 µM (THP-1 [9]) | inhibition of growth at 30 µM (HCT-15 [10]) | inhibition of growth at 30 µM (SF-295 [11]) | inhibition of growth at 30 µM (A549 [12]) | inhibition of growth at 30 µM (MCF7 [13]) | inhibition of growth at 30 µM (HEp-2 [14]) | inhibition of growth at 30 µM (PC-3 [15]) | inhibition of growth at 30 µM (DU-145 [16]) | inhibition of growth at 30 µM (HL-60 [17]) | inhibition of growth at 30 µM (THP-1 [18]) | inhibition of growth at 50 µM (HCT-15 [19]) | inhibition of growth at 50 µM (SF-295 [20]) | other results |
| --- | --- | --- | --- | --- | --- | --- | --- | --- | --- | --- | --- | --- | --- | --- | --- | --- | --- | --- | --- | --- | --- |
| C=C(C)[C@@H]1CC[C@]2(C(=O)O)CC[C@]3(C)[C@H](CC[C@@H]4[C@@]5(C)CC[C@H](OCc6cn(C7O[C@H](COC(C)=O)[C@@H](OC(C)=O)[C@H](OC(C)=O)[C@H]7OC(C)=O)nn6)C(C)(C)[C@@H]5CC[C@]43C)[C@@H]12 (stereo partly drawn) | 39% | 8% | 5% | 8% | 24% | 8% | 7% | 52% | 44% | 54% | 5% | 20% | 15% | 39% | 7% | 4% | 63% | 58% | 62% | 5% | inhibition of growth at 50 µM (A549 [21]): 43%; inhibition of growth at 50 µM (MCF7 [22]): 32%; inhibition of growth at 50 µM (HEp-2 [23]): 44%; inhibition of growth at 50 µM (PC-3 [24]): 11%; inhibition of growth at 50 µM (HL-60 [25]): 80%; inhibition of growth at 50 µM (DU-145 [26]): 8%; inhibition of growth at 50 µM (THP-1 [27]): 76%; pIC50 (HCT-15 [28]): 4.57; pIC50 (A549 [29]): < 4.30; pIC50 (SF-295 [30]): < 4.30; pIC50 (MCF7 [31]): < 4.30; pIC50 (HEp-2 [32]): < 4.30; pIC50 (PC-3 [33]): < 4.30; pIC50 (DU-145 [34]): < 4.30; pIC50 (HL-60 [35]): 5.10; pIC50 (THP-1 [36]): 4.70 |
| C=C(C)[C@@H]1CC[C@]2(C(=O)O)CC[C@]3(C)[C@H](CC[C@@H]4[C@@]5(C)CC[C@H](OCc6cn(-c7ccc(Cl)cc7)nn6)C(C)(C)[C@@H]5CC[C@]43C)[C@@H]12 | 46% | 5% | 52% | 42% | 28% | 22% | 28% | 61% | 50% | 53% | 20% | 59% | 63% | 43% | 40% | 43% | 74% | 69% | 66% | 32% | inhibition of growth at 50 µM (A549 [21]): 83%; inhibition of growth at 50 µM (MCF7 [22]): 80%; inhibition of growth at 50 µM (HEp-2 [23]): 55%; inhibition of growth at 50 µM (PC-3 [24]): 53%; inhibition of growth at 50 µM (HL-60 [25]): 96%; inhibition of growth at 50 µM (DU-145 [26]): 55%; inhibition of growth at 50 µM (THP-1 [27]): 94%; pIC50 (HCT-15 [28]): 4.89; pIC50 (A549 [29]): 5.10; pIC50 (SF-295 [30]): < 4.30; pIC50 (MCF7 [31]): 4.82; pIC50 (HEp-2 [32]): 4.36; pIC50 (PC-3 [33]): 4.37; pIC50 (DU-145 [34]): 4.47; pIC50 (HL-60 [35]): 5.26; pIC50 (THP-1 [36]): 5.00 |
| C=C(C)[C@@H]1CC[C@]2(C(=O)O)CC[C@]3(C)[C@H](CC[C@@H]4[C@@]5(C)CC[C@H](OCc6cn(-c7cccc(I)c7)nn6)C(C)(C)[C@@H]5CC[C@]43C)[C@@H]12 | 29% | 6% | 28% | 51% | 71% | 8% | 23% | 13% | 9% | 45% | 27% | 27% | 58% | 74% | 24% | 62% | 45% | 41% | 54% | 66% | inhibition of growth at 50 µM (A549 [21]): 33%; inhibition of growth at 50 µM (MCF7 [22]): 61%; inhibition of growth at 50 µM (HEp-2 [23]): 72%; inhibition of growth at 50 µM (PC-3 [24]): 27%; inhibition of growth at 50 µM (HL-60 [25]): 64%; inhibition of growth at 50 µM (DU-145 [26]): 62%; inhibition of growth at 50 µM (THP-1 [27]): 56%; pIC50 (HCT-15 [28]): 4.41; pIC50 (A549 [29]): < 4.30; pIC50 (SF-295 [30]): 4.36; pIC50 (MCF7 [31]): 5.10; pIC50 (HEp-2 [32]): 5.42; pIC50 (PC-3 [33]): 4.41; pIC50 (DU-145 [34]): 4.60; pIC50 (HL-60 [35]): 4.37; pIC50 (THP-1 [36]): 4.34 |

Reference: ChEMBL document CHEMBL2380302, “Synthesis of 3-O-propargylated betulinic acid and its 1,2,3-triazoles as potential apoptotic agents” (Eur J Med Chem, 2013)
